The source of these data is US20240024350A1, “ANTI-CANCER COMPOSITION CONTAINING AURANOFIN AND MERCAPTO COMPOUND AND USE THEREOF” (SUN YAT-SEN UNIVERSITY, priority 2020, published 2024).

Experiment [1] relates to HCT116 human colon cancer cells. Put plainly: MTT colorimetric proliferation / cell survival assay, HCT116. The conditions noted are these: for Cell survival rate (%): compound alone, others not given; for Cell survival rate (%) / Cell survival rate after addition of 10 μM auranofin (%): with 30% FBS, 50 μM for TGTA, β-mercaptoethanol, mercaptoethylamine, DEDT; for Cell survival rate after addition of 10 μM auranofin (%): compound plus 10 μM auranofin, listed as Auranofin = auranofin alone.

The subject of experiment [2] is TrxR. Put plainly: Intracellular TrxR activity in HepG2 cells (DTNB reduction). In kind it is cell-based, human. The conditions noted are these: mercapto compound alone 200 μM, 30% FBS. How it is done: HepG2 cells were used as a test subject.
The cells were inoculated into a 6-well plate at 2×10^5 cell/well and incubated for 24 h.
After the incubation, the cell culture medium was replaced with 30% FBS to simulate the high concentration mercapto environment under the normal physiological condition, and used as a control (without adding any reagents). The experimental group was added with 0.5 μM of auranofin for incubation at 37° C. for 30 min, and then added with the mercapto compound (DEDT, β-mercaptoethanol or mercaptoethylamine) for incubation for 30 min (final concentration of DMSO in the system was ≤1%). The incubated cells were washed for 3 times with PBS, added with 100 μL of icy lysis buffer (containing 50 mM of phosphate buffer with pH 7.4, 1 mM EDTA, and 0.10% Triton-X 100), and then lysed on ice for 5 min to collect the cell lysate.
100 μL of buffer (containing 50 mM of potassium phosphate with pH 7.4, 1 mM EDTA, and 0.2 mM NADPH) was added to the collected cell lysate (10 μg protein), 5,5′-dithiobis (2-nitrobenzoic acid) (DTNB, with a final concentration of 3 mM) was added to initiate a reaction, and the activity of TrxR was obtained on the basis of the increased OD value in 10 minutes (OD detection wavelength was 410 nm). Auranofin alone was the positive control sample, and the blank group was the negative control.

Experiment [3] concerns MCF-7 human breast cell cancer cells. Put plainly: MTT colorimetric proliferation / cell survival assay, MCF-7. Type of experiment: cell-based. The conditions noted are these: breast cancer; TGTA 50 μM. How it is done:
(§1) A flask with the cancer cells required for the experiment, with an original culture solution discarded, was washed for three times with 2 mL of PBS, 1 mL of pancreatin was added for digestion for 30 s, and 2 mL of a medium was added to terminate the digestion. The cells were transferred to a centrifuge tube and centrifuged at 1000 rpm for 3 min, the supernatant was discarded, and 2 mL of a medium was added and blew 10 times to be mixed uniformly. 10 μL of a cell suspension was taken for cell counting, and spread on a 96-well plate, with 5000 cells per well and 3 duplications for each compound, and then the number of cells and cell wells was calculated. The amount of required cell suspension and the number of cells for medium dilution were calculated by cell counting. 100 μL of medium was plated with 5000 cells per well, pipetted and mixed uniformly, and the cells were inoculated using a volley, placed in an incubator for culture, and marked.
(§2) (2) The cells cultured in step (1) was taken, and discarded with the original medium. Auranofin mother liquor was diluted to a diluent with final concentrations of 0, 0.78125, 1.5625, 3.125, 6.25, 12.5, 25, 50 and 100 μM, and mixed uniformly. A volley (using 3 wells) was used to draw 100 μL of dilution per well, a 96-well plate was tilted, diluents with each concentration were added in sequence to the corresponding 3 marked wells carefully to prevent poking the cells, blown and sucked about 3 times to be mixed uniformly, marked, shaken for 3 times, and put into a CO2 incubator for culture. The above steps were repeated for each auranofin diluent.
(§3) After auranofin was added for culture for 1 hour, the mother liquor of the mercapto compound was diluted into […] and mixed uniformly. A volley (using 3 wells) was used to suck 20 μL of diluent per well, the 96-well plate was tilted, the diluents of different mercapto compounds were added in sequence to the corresponding 3 marked wells carefully to prevent poking the cells, blown and sucked about 3 times to be mixed uniformly, and put back to the incubator to continue culture.
(§4) After different mercapto compounds were added to cells for 24 h, 20 μL of MTT (with a concentration of 5 mg/mL in PBS) per well was added to the 96-well plate by a volley; and incubation was carried out at 37° C. for 4 h. At the end of incubation, the MTT mixture was sucked out, and DMSO was added at 130 μL/well using a volley.
(§5) According to the results of Table 1-2, the killing effect of auranofin in combination with various compounds (with 30% FBS) on HCT116 human colon cancer cells and the killing effect of the auranofin-TGTA (50 μM) in combination with other cancer cells (lung cancer, colon cancer, breast cancer, liver cancer, cervical cancer and gastric cancer cells) were further detected by using the same method as the above.

In experiment [4] the test system is HepG-2 human liver cancer cells. Put plainly: MTT colorimetric proliferation / cell survival assay, HepG-2. In kind it is cell-based. The following applies: Liver cancer; TGTA 50 μM. The protocol: as §1, §2, §3, §4, §5
The subject of experiment [5] is Hela human cervical cancer cells. Put plainly: MTT cell survival assay, Hela. The following applies: TGTA 50 μM. Type of experiment: cell-based. The protocol: as §1, with “marked. […]” for “marked.”
as §5

Experiment [6] relates to MGC803 human gastric cancer cells. Put plainly: MTT cell survival assay, MGC803. In kind it is cell-based. The conditions noted are these: TGTA 50 μM. How it is done: as §1, with “marked. […]” for “marked.”
as §5

For experiment [7], the system named is PCGR lung cancer cells. Put plainly: MTT cell survival assay, PCGR. In kind it is cell-based. The following applies: TGTA 50 μM. The protocol: as §1, with “marked. […]” for “marked.”
as §5

In experiment [8] the test system is PC9 human lung cancer cells. Put plainly: MTT cell survival assay, PC9. Type of experiment: cell-based. The conditions noted are these: TGTA 50 μM. The protocol:
as §1, with “marked. […]” for “marked.”
as §5

Experiment [9] has as its system A549 human lung cancer cells. Put plainly: MTT colorimetric proliferation / cell survival assay, A549. Type of experiment: cell-based. The following applies: Lung cancer; TGTA 50 μM. How it is done: as §1, §2, §3, §4, §5

Consider `O=S([O-])([O-])=S.[Na+].[Na+]` [sodium thiosulfate], for which, in experiment [1], the “Cell survival rate (%)” value is 105 ± 5% and the “Cell survival rate after addition of 10 μM auranofin (%)” value (“Cell survival rate after addition … (%)” for short) stood at 84 ± 8%.
For the compound `OCCS` [β-mercaptoethanol], in experiment [1], the “Cell survival rate (%)” value amounted to 96 ± 15% and the “Cell survival rate after addition … (%)” value came out at 55 ± 4%. Also, in experiment [2], the “Activity of TrxR” value worked out at 127.3%.
Consider `CC(=O)N[C@@H](CS)C(=O)O` [N-acetylcysteine (NAC), N-acetylcysteine], for which, in [1], the “Cell survival rate (%)” value is 100 ± 6% and the “Cell survival rate after addition … (%)” value is listed as 77 ± 17%.
Take `CCN(CC)C(=S)[S-].[Na+]` [DEDT, Sodium diethyldithiocarbamate]: in experiment [1], the “Cell survival rate (%)” value stood at 78 ± 10% and the “Cell survival rate after addition … (%)” value turned out to be 0.9 ± 1.6%. The “Activity of TrxR” value in experiment [2] stood at 88.6%.
For `CCCc1cc(=O)[nH]c(=S)[nH]1` [Propylthiouracil], in experiment [1], the “Cell survival rate (%)” value turned out to be 101 ± 6% and the “Cell survival rate after addition … (%)” value amounted to 76 ± 9%.
On the same counts, the results for `[Na+].[Na+].[Na+].[O-]P([O-])([O-])=S` [Sodium thiophosphate hydrate] are 99 ± 8% and 79 ± 4%.
The like results for `N[C@@H](CCC(=O)N[C@@H](CS)C(=O)NCC(=O)O)C(=O)O` [Glutathione (GSH), Glutathione] were, in that order, 116 ± 6% and 81 ± 7%.
Consider `O[C@H](CS)[C@H](O)CS` (racemic) [Dithiothreitol (DTT), Dithiothreitol], for which, in [1], the “Cell survival rate (%)” value worked out at 102 ± 4% and the “Cell survival rate after addition … (%)” value was 88 ± 6%.
Regarding `Cn1cc[nH]c1=S` [Methimazole], in experiment [1], the “Cell survival rate (%)” value is recorded as 98 ± 9% and the “Cell survival rate after addition … (%)” value came out at 87 ± 5%.
For the compound `CC(=O)OC[C@H]1O[C@@H](S)[C@H](OC(C)=O)[C@@H](OC(C)=O)[C@@H]1OC(C)=O` [TGTA, 1-thio-β-D-glucose tetraacetate], the “Cell survival rate (%) HCT116” value in [1] (colon cancer, TGTA 50 μM) is given as 97 ± 5%. In [1], the “Cell survival rate (%)” value was determined as 97 ± 5% and the “Cell survival rate after addition … (%)” value turned out to be 18 ± 2%. In addition, in experiment [3], the “Cell survival rate (%) MCF-7” value worked out at 99 ± 3%. In addition, the “Cell survival rate (%) HepG2” value in experiment [4] is given as 104 ± 4%. Besides, the “Cell survival rate (%) Hela” value in experiment [5] stood at 87 ± 6%. Moreover, the “Cell survival rate (%) MGC803” value in experiment [6] came out at 104 ± 9%. Moreover, in experiment [7], the “Cell survival rate (%) PCGR” value came out at 101 ± 3%. For the same compound, in experiment [8], the “Cell survival rate (%) PC9” value was 104 ± 2%. Moreover, in experiment [9], the “Cell survival rate (%) A549” value was determined as 104 ± 6%.
For `NCCS` [mercaptoethylamine, mercaptoethanamine], in experiment [1], the “Cell survival rate (%)” value is 105 ± 7% and the “Cell survival rate after addition … (%)” value was 85 ± 3%. The “Activity of TrxR” value in [2] was found to be 118.2%.
